Results reported in patent EP3861981B1, “NOVEL SERTACONAZOLE COMPOSITIONS” (Dr. Pfleger Arzneimittel GmbH, priority 2020, dated 2021).

Legend:
Assay type in all cases: physicochemical
[1] = Example 1: solubility of sertaconazole nitrate in solvents, macroscopic
Method: Mixtures of 2 wt.-% sertaconazole nitrate and 98 wt.-% of solvents were prepared and shaken for 24 h at 150 rpm and at room temperature. Subsequently, the samples were macroscopically examined by evaluating the amount and appearance of the sediment.

[2] = Example 2: solubility of sertaconazole nitrate in solubilizers, macroscopic
Method: Mixtures of 2 wt.-% sertaconazole nitrate and 98 wt.-% of solubilizers were prepared and shaken for 24 h at 150 rpm and at room temperature. Subsequently, the samples were macroscopically examined by evaluating the amount and appearance of the sediment.

[3] = Example 3: solubility of sertaconazole nitrate in mixtures of solvent and solubilizer
Method: Mixtures of 2 wt.-% sertaconazole nitrate and 98 wt.-% of a mixture of solvent and solubilizers (the amount of solubilizer with respect to the total mixture of sertaconazole nitrate, solvent and solubilizer is indicated in the subsequent table) were prepared and shaken for 24 h at 150 rpm and at room temperature. Subsequently, the samples were macroscopically examined by evaluating the amount and appearance of the sediment.

## Clc1ccc(C(Cn2ccnc2)OCc2csc3c(Cl)cccc23)c(Cl)c1 (centres unmarked) [sertaconazole nitrate]
[1]; 2 wt.-% in 98 wt.-% solvent, 24 h, room temperature, trend over water, butyl acetate, ethyl acetate, isopropanol, ethanol
  solubility: Increasing from water to ethanol
[1]; Ethanol
  appearance: Low, crystalline sediment
[1]; Water
  appearance: Not dissolved, powdery, white sediment
[1]; trend over water, butyl acetate, ethyl acetate, isopropanol, ethanol
  sediment: Decreasing from water to etanol
[2]; 2 wt.-% in 98 wt.-% solubilizer, 24 h, room temperature, trend from dimethylphthalate to macrogol 400
  solubility: Increasing from dimethylphthalate to macrogol 400
[2]; Dimethylphthalate
  appearance: Milky mixture with sediment
[2]; Glycerine (cell below, Marcogol 300, empty, possibly merged)
  appearance: Clear solution with sediment
[2]; Polyglycol M350 (cells below, propylene glycol, transcutol, macrogol 400, empty, possibly merged)
  appearance: Dissolved
[3]; Butyl acetate + Macrogol 400 10-30 wt.-%
  amount and appearance of the sediment: Sediment, no change observed by increasing amount of macrogol 400
[3]; Butyl acetate + Polyglycol M350 10-30 wt.-%
  amount and appearance of the sediment: White powdery sediment, no change observed by increas-ing amount of polyglycol M350
[3]; Butyl acetate + Propylene glycol 10-30 wt.-%
  amount and appearance of the sediment: Clear decrease of sediment with increase of propylene gly-col
[3]; Butyl acetate + Transcutol 10-30 wt.-%
  amount and appearance of the sediment: Sediment, no change observed by increasing amount of transcutol
[3]; Butyl acetate + Water 10-30 wt.-%
  amount and appearance of the sediment: Sediment (partially powdery white), increase of sediment with increasing amount of water
[3]; Ethanol + Dimethylphthalate 10-30 wt.-%
  amount and appearance of the sediment: Sediment (slightly crystalline), minimal decrease of sedi-ment with increasing of amount of dimethylphthalate
[3]; Ethanol + Macrogol 400 10 wt.-%
  amount and appearance of the sediment: Minimal crystal-line sediment
[3]; Ethanol + Macrogol 400 20 wt.-%
  amount and appearance of the sediment: clear
[3]; Ethanol + Macrogol 400 30 wt.-%
  amount and appearance of the sediment: clear
[3]; Ethanol + Polyglycol M350 10 wt.-%
  amount and appearance of the sediment: Minimal crystal-line sediment
[3]; Ethanol + Polyglycol M350 20 wt.-%
  amount and appearance of the sediment: clear
[3]; Ethanol + Polyglycol M350 30 wt.-%
  amount and appearance of the sediment: clear
[3]; Ethanol + Propylene glycol 10-30 wt.-%
  amount and appearance of the sediment: Minimal crystalline sediment, decrease of sediment with increase of amount of propylene glycol
[3]; Ethanol + Transcutol 10-30 wt.-%
  amount and appearance of the sediment: Minimal crystalline sediment, decrease of sediment with increase of amount of transcutol
[3]; Ethanol + Water 10-30 wt.-%
  amount and appearance of the sediment: Sediment (powdery/crystalline), no change observed by in-creasing amount of water
[3]; Ethyl acetate + Dimethylphthalate 10-30 wt.-%
  amount and appearance of the sediment: Crystalline sediment, better solubility than pure ethyl ace-tate
[3]; Ethyl acetate + Macrogol 400 10-30 wt.-%
  amount and appearance of the sediment: Crystalline sediment, minimal decrease of sediment with increase of amount of macrogol 400
[3]; Ethyl acetate + Polyglycol M350 10-30 wt.-%
  amount and appearance of the sediment: White, powdery sediment, no change observed by in-crease of amount of polyglycol M350
[3]; Ethyl acetate + Propylene glycol 10-20 wt.-%
  amount and appearance of the sediment: Decrease of crystalline sediment with increase of amount of propylene gly-col
[3]; Ethyl acetate + Propylene glycol 30 wt.-%
  amount and appearance of the sediment: Clear
[3]; Ethyl acetate + Transcutol 10-30 wt.-%
  amount and appearance of the sediment: Powdery/crystalline sediment, no change observed by in-crease of amount of transcutol
[3]; Ethyl acetate + Water 10-30 wt.-%
  amount and appearance of the sediment: Sediment (partially powdery white), increase of sediment with increasing amount of water
[3]; Isopropanol + Macrogol 400 10-30 wt.-%
  amount and appearance of the sediment: Crystalline sediment, no change observed by increasing amount of macrogol 400
[3]; Isopropanol + Polyglycol M350 10-30 wt.-%
  amount and appearance of the sediment: White sediment, clear decrease of sediment with increas-ing amount of polyglycol M350
[3]; Isopropanol + Propylene glycol 10-30 wt.-%
  amount and appearance of the sediment: Crystalline sediment, no change observed by increasing amount of propylene glycol
[3]; Isopropanol + Transcutol 10-30 wt.-%
  amount and appearance of the sediment: Crystalline sediment, no change observed by increasing amount of transcutol
[3]; Isopropanol + Water 10-30 wt.-%
  amount and appearance of the sediment: White powdery sediment, no change observed by increas-ing amount of water
